# Reference: patent publication US12186435B2, “Sol-gel/hydrogel therapeutic delivery system and methods thereof” (ALBERT EINSTEIN COLLEGE OF MEDICINE, priority 2017, dated 2025)
# “Also recorded” adds a separate entry of the source.
# What was measured:
# [1] = Release of NACSNO and GSNO from particles into aqueous buffer; type: physicochemical; conditions: for release from original rapid gelation platform: deliverable added before condensation, aqueous buffer
# [2] = Curcumin release from particles into ethanol or methanol; type: physicochemical
# Description: FIG. 2. A comparison of release profiles form curcumin loaded nanoparticles. “Brinker” (Br) is the high-density sol-gel that took 7 days to gel and curcumin added after the gelation is complete. “9d dry” is the original formulation air dried for 9 days. Release is of suspended particles into ethanol or methanol. Plots from top to bottom, respectively: EtOH original, EtOH 9d dry, MeOH Brinker, and EtOH Brinker.
# Release from Nanoparticles was Made Via: • the Br(Brinker) method where the curcumin is loaded into the empty Br sol-gel block (slow gelation protocol), • The original hydrogel platform where the curcumin is mixed in the initial pre-condensation mixture which gels much more rapidly than the Br sol-gels, • Curcumin loaded in the original fast gelling platform but the resulting curcumin containing sol-gel is air dried for nine days (to promote enhanced density-decreasing pore size.
# The effect of added PEG400 on release rates of NACSNO (SNO derivative of N-acetylcysteine) and curcumin from nanoparticles generated using the new block gel protocol (Universal Drug Delivery Platform). • New protocol in which NACSNO and curcumin are infused into a gel block prepared from TMOS using the standard Brinker method for gelation. Once the gel is loaded with the deliverables, the gel is lyophilized and then milled to produce the loaded nanoparticles. • Four separate gels are prepared for each of the deliverables • One gel has no added PEG whereas the other three have varying amounts of added PEG400. The percentage of added PEG shown in the figures refers to the percentage of PEG added compared to what was added in our original protocol.
# [3] = Release of fluorescent labeled lipids from Br1 particles, with or without 3% octyl-TMOS doping; type: physicochemical
# Description: FIG. 13. Effects of doping del with 3% octyl-TMOS on release of lipids. Plots from top to bottom, respectively: Cholesterol-BDP, Chol/3% Octyl, Palmitate-NBD, and Palm/3% Octyl.
# Fluorescent labeled cholesterol and palmytic acid were used to show both loading and release. Procyanidine is a potent antioxidant that is being evaluated for use in the treatment of osteoarthritis.
# Effects of Doping Del with 3% Octyl-TMOS on Release of Lipids (FIG. 13)
# 3% octyl doped gel changed cholesterol release(from 80% released down to 55% released), but had no effect on palmitate release.
# [4] = Evans Blue release from particles in water; type: physicochemical; conditions: for release from amine (APTS) doped particles: hydrogel doped with amine groups
# Experimental: FIGS. 18A-18B. Curcumin (A) and (B) Evans Blue APTS doped gels. The gels were doped with 0.3% APTS. Rate of condensation changed by mM NaOH concentration (75, 60, 30, 12) added prior to condensation step. Increasing gel times for decreasing amount of added NaOH: (2 mins, 30 mins, 15 hours, 1.5 days: 75, 60, 30, 12 mM NaOH). Curcumin release in ethanol; Evans blue release in water. Both plots from top to bottom, respectively, at left side of plots: 75 mM, 60 mM, 30 mM and 12 mM.
# Amines are incorporated by mixing hydrolyzed APTS with hydrolyzed TMOS. The resulting sol-gel monolith is loaded with the water soluble dye Evans Blue which has four negatively charged groups.
# [5] = in methanol
# [6] = gel block doped with octyl group
compound,measurement,setting,value
"CC(=O)N[C@@H](CSN=O)C(=O)O [NACSNO, S-nitrosoN-acetylcysteine]",release from original rapid gelation platform,[1],almost immediate release
same,effect of octyl group doping on release,[1]; [6],slows release
"COc1cc(/C=C/C(=O)CC(=O)/C=C/c2ccc(O)c(OC)c2)ccc1O [curcumin, Curcumin]",effect of increasing addition of base prior to condensation on release,[2]; Br sol-gels doped with APTS,increase in release
same,effect of octyl group doping on release,[2]; [6],slows release
same,effect of APTS on release,"[2]; slow gel, >1 day to form",increased
same,release compared to the original platform and its air dried version,"[2]; slow gelling Br protocol, curcumin loaded after gelation",dramatic slow down in release
same,effect of increasing pH in condensation step on release,"[2]; sol-gel doped with 25% PEG400, release in ethanol",increases release
CCCCCCCCCCCCCCCC(=O)O [palmitate],effect of 3% octyl doping on release,[3]; 3% octyl doped gel vs undoped,no effect
Cc1cc(-c2ccc(/N=N/c3ccc4c(S(=O)(=O)O)cc(S(=O)(=O)O)c(N)c4c3O)c(C)c2)ccc1/N=N/c1ccc2c(S(=O)(=O)O)cc(S(=O)(=O)O)c(N)c2c1O [Evans Blue],effect of increasing addition of base prior to condensation on release,[4]; Br sol-gels doped with APTS,increase in release
same,release from amine (APTS) doped particles,[4],slowed by several orders or magnitude; also recorded: substantially slows release
same,release from amine (APTS) doped particles,[4]; listed as Evans blue,slows
same,release from undoped particles,"[4]; without amine doping, aqueous environment",immediate and complete; also recorded: near instantaneous
"N[C@@H](CCC(=O)N[C@@H](CSN=O)C(=O)NCC(=O)O)C(=O)O [GSNO, S-nitrosothiol-GSH]",release from original rapid gelation platform,[1],rapid release
same,stability in original rapid gelation platform,[1]; prepared in original rapid gelation platform,unstable
COc1ccc2cc([C@H](C)C(=O)O)ccc2c1 [Naproxen],release from new protocol nanoparticles,[5],slow release
CC(C)CCC[C@@H](C)[C@H]1CC[C@H]2[C@@H]3CC=C4C[C@@H](O)CC[C@]4(C)[C@H]3CC[C@]12C [cholesterol],"cholesterol release, released",[3]; 3% octyl doped gel,55%
same,"cholesterol release, released",[3]; gel without octyl doping (Br1),80%
